# Patent US20250353891A1 (MEDIMMUNE LIMITED, priority 2022, published 2025)
# Starred links: 1 amine or outer side, 2 acyl side, 3 side chain; linkers in the order of their positions; H or OH if unused. Non-standard residues stand in square brackets, D forms with d. Residues, ends and D or L forms follow the SMILES beside them. Groups on a side chain read outwards from the residue. *: point of attachment. C20 diacid = O=C(O)CCCCCCCCCCCCCCCCCCC(=O)*; C18 diacid = O=C(O)CCCCCCCCCCCCCCCCC(=O)*; γGlu = O=C(O)[C@H](CCC(=O)[*:2])N[*:1]; αMeF = C[C@](N)(Cc1ccccc1)C(=O)O; AEEA = NCCOCCOCC(=O)O; Aib = CC(C)(N)C(=O)O
# Key:
# [1] = biological target: human glucagon receptor (hGCGR) (Homo sapiens, UniProt P47871); assay: cAMP production (HTRF) in CHO cells expressing hGCGR; type: cell-based; parameters: expressed in transfected cells; conditions: Table 6, peptides modified at position 17; cAMP in CHO hGCGR cells; geometric mean; read-out: hGluc-R EC50
# human glucagon receptor (hGCGR), sequence (P47871 26-477): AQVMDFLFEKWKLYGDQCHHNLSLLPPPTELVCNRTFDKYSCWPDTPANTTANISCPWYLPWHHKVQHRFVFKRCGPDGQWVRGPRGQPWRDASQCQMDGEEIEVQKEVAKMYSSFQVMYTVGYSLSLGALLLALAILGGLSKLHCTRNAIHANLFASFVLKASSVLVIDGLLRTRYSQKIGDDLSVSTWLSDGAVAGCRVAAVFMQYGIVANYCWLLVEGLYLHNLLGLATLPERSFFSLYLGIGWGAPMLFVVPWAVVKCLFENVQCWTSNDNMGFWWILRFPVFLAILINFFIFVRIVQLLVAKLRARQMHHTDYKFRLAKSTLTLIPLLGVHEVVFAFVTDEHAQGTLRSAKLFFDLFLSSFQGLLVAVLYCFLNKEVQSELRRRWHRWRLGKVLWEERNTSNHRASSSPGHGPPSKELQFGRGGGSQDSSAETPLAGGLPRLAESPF
# Summary of the method: (§1)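 Potency values represent EC50 from 4-parameter logistic curves of HTRF % Delta F signal. Receptor-expressing CHO cells (hGCGR 2×10^5 cells/mL, hGLP-1R 1×10^5 cells/mL) were exposed for 30 min at room temperature before two-step cAMP detection.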
# [2] = biological target: human GLP-1 receptor (hGLP-1R) (Homo sapiens, UniProt P43220); assay: cAMP production (HTRF) in CHO cells expressing hGLP-1R; type: cell-based; parameters: expressed in transfected cells; conditions: for EC50: Table 6, peptides modified at position 17, cAMP in CHO hGLP-1R cells, geometric mean, read-out: hGLP-1R EC50; for % Relative Potency Ratio: Table 6, % GLP-1R activity relative to GLP-1 / % GlucR activity relative to glucagon
# human GLP-1 receptor (hGLP-1R), sequence (P43220 24-463): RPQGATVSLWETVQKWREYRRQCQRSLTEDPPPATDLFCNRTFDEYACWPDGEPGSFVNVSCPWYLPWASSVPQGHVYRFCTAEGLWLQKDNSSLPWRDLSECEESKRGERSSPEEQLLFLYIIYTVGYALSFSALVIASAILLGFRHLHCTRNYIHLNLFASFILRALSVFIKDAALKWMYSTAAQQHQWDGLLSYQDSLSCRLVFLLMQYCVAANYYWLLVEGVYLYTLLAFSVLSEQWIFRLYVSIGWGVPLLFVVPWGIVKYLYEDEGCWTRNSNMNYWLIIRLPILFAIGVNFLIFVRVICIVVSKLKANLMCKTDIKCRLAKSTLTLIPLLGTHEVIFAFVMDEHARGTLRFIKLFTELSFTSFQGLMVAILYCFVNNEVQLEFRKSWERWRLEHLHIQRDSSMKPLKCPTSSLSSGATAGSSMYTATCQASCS
# Summary of the method: as §1
EC50 [1],EC50 [2],% Relative Potency Ratio [2],SMILES
0.131 nM,0.0356 nM,7.3,CC(C)C[C@H](NC(=O)[C@H](Cc1c[nH]c2ccccc12)NC(=O)[C@H](CCC(N)=O)NC(=O)[C@@H](NC(=O)[C@H](Cc1ccccc1)NC(=O)[C@H](CC(=O)O)NC(=O)[C@H](CCC(N)=O)NC(=O)[C@H](C)NC(=O)[C@H](CCCNC(=N)N)NC(=O)[C@H](CCCCNC(=O)COCCOCCNC(=O)COCCOCCNC(=O)CC[C@H](NC(=O)CCCCCCCCCCCCCCCCC(=O)O)C(=O)O)NC(=O)[C@@H](NC(=O)[C@H](CC(=O)O)NC(=O)[C@H](CC(C)C)NC(=O)[C@](C)(Cc1ccccc1)NC(=O)[C@H](CCCCN)NC(=O)[C@H](CO)NC(=O)[C@@H](NC(=O)[C@H](CC(=O)O)NC(=O)[C@H](CO)NC(=O)[C@@H](NC(=O)[C@H](Cc1ccccc1)NC(=O)[C@@H](NC(=O)CNC(=O)[C@H](CCC(N)=O)NC(=O)C(C)(C)NC(=O)[C@@H](N)Cc1c[nH]cn1)[C@@H](C)O)[C@@H](C)O)C(C)C)[C@@H](C)O)C(C)C)C(=O)N[C@@H](CC(C)C)C(=O)N[C@@H](CCC(=O)O)C(=O)NC(C)(C)C(=O)NCC(N)=O [Peptide 466] (H-H[Aib]QGTFTSDVSK[αMeF]LDTK([AEEA-AEEA-γGlu-C18 diacid])RAQDFVQWLLE[Aib]G-NH2; N-terminus assumed)
0.292 nM,0.0675 nM,8.6,CC(C)C[C@H](NC(=O)[C@H](Cc1c[nH]c2ccccc12)NC(=O)[C@H](CCC(N)=O)NC(=O)[C@@H](NC(=O)[C@H](Cc1ccccc1)NC(=O)[C@H](CC(=O)O)NC(=O)[C@H](CCC(N)=O)NC(=O)[C@H](C)NC(=O)[C@H](CCCNC(=N)N)NC(=O)[C@H](CCCCNC(=O)COCCOCCNC(=O)COCCOCCNC(=O)CC[C@H](NC(=O)CC[C@H](NC(=O)CCCCCCCCCCCCCCCCC(=O)O)C(=O)O)C(=O)O)NC(=O)[C@@H](NC(=O)[C@H](CC(=O)O)NC(=O)[C@H](CC(C)C)NC(=O)[C@](C)(Cc1ccccc1)NC(=O)[C@H](CCCCN)NC(=O)[C@H](CO)NC(=O)[C@@H](NC(=O)[C@H](CC(=O)O)NC(=O)[C@H](CO)NC(=O)[C@@H](NC(=O)[C@H](Cc1ccccc1)NC(=O)[C@@H](NC(=O)CNC(=O)[C@H](CCC(N)=O)NC(=O)C(C)(C)NC(=O)[C@@H](N)Cc1c[nH]cn1)[C@@H](C)O)[C@@H](C)O)C(C)C)[C@@H](C)O)C(C)C)C(=O)N[C@@H](CC(C)C)C(=O)N[C@@H](CCC(=O)O)C(=O)NC(C)(C)C(=O)NCC(N)=O [Peptide 468]
0.538 nM,0.255 nM,4.2,CC(C)C[C@H](NC(=O)[C@H](Cc1c[nH]c2ccccc12)NC(=O)[C@H](CCC(N)=O)NC(=O)[C@@H](NC(=O)[C@H](Cc1ccccc1)NC(=O)[C@H](CC(=O)O)NC(=O)[C@H](CCC(N)=O)NC(=O)[C@H](C)NC(=O)[C@H](CCCNC(=N)N)NC(=O)[C@H](CCCCNC(=O)COCCOCCNC(=O)COCCOCCNC(=O)CC[C@H](NC(=O)CC[C@H](NC(=O)CCCCCCCCCCCCCCCCCCC(=O)O)C(=O)O)C(=O)O)NC(=O)[C@@H](NC(=O)[C@H](CC(=O)O)NC(=O)[C@H](CC(C)C)NC(=O)[C@](C)(Cc1ccccc1)NC(=O)[C@H](CCCCN)NC(=O)[C@H](CO)NC(=O)[C@@H](NC(=O)[C@H](CC(=O)O)NC(=O)[C@H](CO)NC(=O)[C@@H](NC(=O)[C@H](Cc1ccccc1)NC(=O)[C@@H](NC(=O)CNC(=O)[C@H](CCC(N)=O)NC(=O)C(C)(C)NC(=O)[C@@H](N)Cc1c[nH]cn1)[C@@H](C)O)[C@@H](C)O)C(C)C)[C@@H](C)O)C(C)C)C(=O)N[C@@H](CC(C)C)C(=O)N[C@@H](CCC(=O)O)C(=O)NC(C)(C)C(=O)NCC(N)=O [Peptide 469] (H-H[Aib]QGTFTSDVSK[αMeF]LDTK([AEEA-AEEA-γGlu-γGlu-C20 diacid])RAQDFVQWLLE[Aib]G-NH2)
0.0303 nM,0.0559 nM,1.1,CC(C)C[C@H](NC(=O)[C@H](Cc1c[nH]c2ccccc12)NC(=O)[C@H](CCC(N)=O)NC(=O)[C@@H](NC(=O)[C@H](Cc1ccccc1)NC(=O)[C@H](CC(=O)O)NC(=O)[C@H](CCCNC(=N)N)NC(=O)[C@H](C)NC(=O)[C@H](CCCNC(=N)N)NC(=O)[C@H](CCCCNC(=O)COCCOCCNC(=O)COCCOCCNC(=O)CC[C@H](NC(=O)CCCCCCCCCCCCCCCCCCC(=O)O)C(=O)O)NC(=O)[C@H](CCCCN)NC(=O)[C@H](CC(=O)O)NC(=O)[C@H](CC(C)C)NC(=O)[C@](C)(Cc1ccccc1)NC(=O)[C@H](CCCCN)NC(=O)[C@H](CO)NC(=O)[C@@H](NC(=O)[C@H](CC(=O)O)NC(=O)[C@H](CO)NC(=O)[C@@H](NC(=O)[C@H](Cc1ccccc1)NC(=O)[C@@H](NC(=O)CNC(=O)[C@H](CCC(N)=O)NC(=O)C(C)(C)NC(=O)[C@@H](N)Cc1c[nH]cn1)[C@@H](C)O)[C@@H](C)O)C(C)C)C(C)C)C(=O)N[C@@H](CC(C)C)C(=O)NC(C)(C)C(=O)N[C@@H](CCC(=O)O)C(N)=O [Peptide 470] (H-H[Aib]QGTFTSDVSK[αMeF]LDKK([AEEA-AEEA-γGlu-C20 diacid])RARDFVQWLL[Aib]E-NH2; N-terminus assumed)
0.0636 nM,0.102 nM,1.2,CC(C)C[C@H](NC(=O)[C@H](Cc1c[nH]c2ccccc12)NC(=O)[C@H](CCC(N)=O)NC(=O)[C@@H](NC(=O)[C@H](Cc1ccccc1)NC(=O)[C@H](CC(=O)O)NC(=O)[C@H](CCCNC(=N)N)NC(=O)[C@H](C)NC(=O)[C@H](CCCNC(=N)N)NC(=O)[C@H](CCCCNC(=O)COCCOCCNC(=O)COCCOCCNC(=O)CC[C@H](NC(=O)CCCCCCCCCCCCCCCCCCC(=O)O)C(=O)O)NC(=O)[C@H](CCCNC(=N)N)NC(=O)[C@H](CC(=O)O)NC(=O)[C@H](CC(C)C)NC(=O)[C@](C)(Cc1ccccc1)NC(=O)[C@H](CCCCN)NC(=O)[C@H](CO)NC(=O)[C@@H](NC(=O)[C@H](CC(=O)O)NC(=O)[C@H](CO)NC(=O)[C@@H](NC(=O)[C@H](Cc1ccccc1)NC(=O)[C@@H](NC(=O)CNC(=O)[C@H](CCC(N)=O)NC(=O)C(C)(C)NC(=O)[C@@H](N)Cc1c[nH]cn1)[C@@H](C)O)[C@@H](C)O)C(C)C)C(C)C)C(=O)N[C@@H](CC(C)C)C(=O)NC(C)(C)C(=O)N[C@@H](CCC(=O)O)C(N)=O [Peptide 471]
0.0141 nM,0.0115 nM,2.4,CC(C)C[C@H](NC(=O)[C@H](Cc1c[nH]c2ccccc12)NC(=O)[C@H](CCC(N)=O)NC(=O)[C@@H](NC(=O)[C@H](Cc1ccccc1)NC(=O)[C@H](CC(=O)O)NC(=O)[C@H](CCCNC(=N)N)NC(=O)[C@H](C)NC(=O)[C@H](CCCNC(=N)N)NC(=O)[C@H](CCCCNC(=O)COCCOCCNC(=O)COCCOCCNC(=O)CC[C@H](NC(=O)CCCCCCCCCCCCCCCCC(=O)O)C(=O)O)NC(=O)[C@H](CCCNC(=N)N)NC(=O)[C@H](CC(=O)O)NC(=O)[C@H](CC(C)C)NC(=O)[C@](C)(Cc1ccccc1)NC(=O)[C@H](CCCCN)NC(=O)[C@H](CO)NC(=O)[C@@H](NC(=O)[C@H](CC(=O)O)NC(=O)[C@H](CO)NC(=O)[C@@H](NC(=O)[C@H](Cc1ccccc1)NC(=O)[C@@H](NC(=O)CNC(=O)[C@H](CCC(N)=O)NC(=O)C(C)(C)NC(=O)[C@@H](N)Cc1c[nH]cn1)[C@@H](C)O)[C@@H](C)O)C(C)C)C(C)C)C(=O)N[C@@H](CC(C)C)C(=O)NC(C)(C)C(=O)N[C@@H](CCC(=O)O)C(N)=O [Peptide 473] (H-H[Aib]QGTFTSDVSK[αMeF]LDRK([AEEA-AEEA-γGlu-C18 diacid])RARDFVQWLL[Aib]E-NH2; N-terminus assumed)
